Laboratory results published in paper PMC5640644, “HDX reveals the conformational dynamics of DNA sequence specific VDR co-activator interactions” (Nature Communications, 2017).

Molecular target: T1, VDRRXRα heterodimer (Homo sapiens, UniProt P11473, DEL151-190)
T1 construct: Full-length WT His-hVDR (Δ (151–190)) and WT Flag-h RXRα were expressed in a baculovirus system; His; made in house; host or cells: baculovirus system (VDR, RXRα); Escherichia coli BL21 DE3 (SRC1 RID)
T1 sequence (P11473 with tags, fused parts or gaps DEL151-190): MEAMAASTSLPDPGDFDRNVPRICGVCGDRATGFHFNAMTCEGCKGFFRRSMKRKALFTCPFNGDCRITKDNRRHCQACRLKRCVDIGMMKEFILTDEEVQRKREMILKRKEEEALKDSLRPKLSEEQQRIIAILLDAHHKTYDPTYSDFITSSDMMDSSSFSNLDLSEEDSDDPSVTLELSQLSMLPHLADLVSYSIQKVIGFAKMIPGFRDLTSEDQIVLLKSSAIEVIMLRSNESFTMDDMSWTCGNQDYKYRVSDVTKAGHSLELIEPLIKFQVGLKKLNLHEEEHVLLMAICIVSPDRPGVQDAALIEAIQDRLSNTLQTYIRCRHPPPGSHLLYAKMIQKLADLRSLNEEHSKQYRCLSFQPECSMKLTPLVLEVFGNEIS
T1 sequence (P19793 1-462 partner): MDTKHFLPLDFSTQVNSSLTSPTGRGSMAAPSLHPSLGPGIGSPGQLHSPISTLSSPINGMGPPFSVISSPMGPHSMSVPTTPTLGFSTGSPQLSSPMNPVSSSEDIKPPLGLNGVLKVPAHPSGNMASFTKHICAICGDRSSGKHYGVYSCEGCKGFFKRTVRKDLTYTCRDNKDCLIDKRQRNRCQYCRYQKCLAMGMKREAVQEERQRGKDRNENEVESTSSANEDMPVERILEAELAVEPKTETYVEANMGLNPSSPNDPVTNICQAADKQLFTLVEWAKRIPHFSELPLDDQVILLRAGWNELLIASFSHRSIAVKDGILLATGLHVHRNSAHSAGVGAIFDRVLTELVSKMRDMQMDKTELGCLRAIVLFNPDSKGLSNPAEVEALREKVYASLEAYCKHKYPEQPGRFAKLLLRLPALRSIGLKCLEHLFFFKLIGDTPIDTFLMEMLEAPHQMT
T1 sequence (Q15788 627-786 partner limits assumed): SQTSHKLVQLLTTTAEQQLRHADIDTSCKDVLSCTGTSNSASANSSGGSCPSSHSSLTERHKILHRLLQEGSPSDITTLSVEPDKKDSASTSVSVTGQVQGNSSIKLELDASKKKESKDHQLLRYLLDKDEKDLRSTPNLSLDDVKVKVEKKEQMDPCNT
Assay: Differential HDX-MS of liganded full-length VDRRXRα heterodimer with DNA VBS and SRC1 RID
Format: binding
Settings: for decrease in solvent exchange within H12 of VDR upon SRC1 RID binding: ligand-heterodimer-DR3 or -DR3 half-site complex (both alike), aa412−419 for Cmpd1; for ΔΔHDX in the VDR hinge region (aa97−108): ΔHDX heterodimer:agonist ± DR3 minus ΔHDX heterodimer:agonist ± DR3 half-site
Protocol: The final protein buffer was 50 mM Tris (pH 8.0), 150 mM NaCl, 10% glycerol and 2 mM DTT.
The DR3 VBS 5′-[…]-3′, DR3 half-site VBS 5′-[…]-3′, BGLAP VBS 5′-[…]-3′, BGLAP* VBS 5′-[…]-3′ and TRPV6 VBS 5′-[…]-3′ duplex oligonucleotides were purchased from Integrated DNA Technologies. […] SRC1 RID was added in a 2× molar ratio to heterodimer, and oligonucleotide (VBS) was mixed with the protein complex as needed (1.5× molar ratio). […]
Solution-phase amide HDX experiments were carried out with a fully automated system (CTC HTS PAL, LEAP Technologies, Carrboro, NC; housed inside a 4 °C cabinet) as follows.
HDX-MS analysis: 10 μM of the apo protein was mixed with 1:10 molar excess of ligand and incubated for 2 h at 4 °C for complex formation before subjecting them to HDX analysis. For the differential HDX experiments, 5 μl of either the apo or the liganded protein complex with DNA and SRC1 RID were mixed with 20 μl of D2O-containing HDX buffer (50 mM Tris, pH 8.0, 150 mM NaCl, and 2 mM DTT) and incubated at 4 °C for 0 s, 10 s, 30 s, 60 s, 300 s, 900 s, or 3,600 s. Following on-exchange, unwanted forward-exchange or back-exchange was minimized and the protein was denatured by the addition of 25 μl of a quench solution (1% v/v TFA in 3 M urea and 50 mM TCEP). Samples were then immediately passed through an immobilized pepsin column (prepared in house) at 50 μl min-1 (0.1% v/v TFA, 15 °C) and the resulting peptides were trapped and desalted on a 1.0 mm × 10 mm C8 trap column (Hypersil Gold, Thermo Fisher, Grand Island, NY). The bound peptides were then gradient-eluted (5–50% CH3CN v/v and 0.3% v/v formic acid) across a 1.0 mm × 50 mm C18 separation column (Hypersil Gold, Thermo Fisher, Grand Island, NY) for 6 min. Sample handling and peptide separation were conducted at 4 °C. The eluted peptides were then subjected to electrospray ionization directly coupled to a high resolution Orbitrap mass spectrometer (LTQ Orbitrap XL with ETD, Q Exactive, or Exactive, Thermo Fisher Scientific, San Jose, CA). Each HDX experiment was carried out in triplicate with a single preparation of each protein-ligand complex. The intensity weighted mean m/z centroid value of each peptide envelope was calculated and subsequently converted into a percentage of deuterium incorporation. This is accomplished by determining the observed averages of the undeuterated and fully deuterated spectra using the conventional formula described elsewhere. […] Statistical significance for the differential HDX data is determined by an unpaired t-test for each time point, a procedure that is integrated into the HDX Workbench software.
Data Statistics: Deuterium uptake for each peptide is calculated as the average of % D for all on-exchange time points and the difference in average %D values between the apo and ligand bound samples is presented as a heat map with a color code given at the bottom of the figure (warm colors for deprotection and cool colors for protection). […] Peptides with non-significant changes between the two states are colored gray. The exchange at the first two residues for any given peptide is not colored.

[1] = both ligand-heterodimer-VBS complexes (DR3, DR3 half-site)

SMILES | decreased exchange for H1 of VDR upon SRC1 RID interaction [1] | decreased exchange for H3 of VDR upon SRC1 RID interaction [1] | decrease in solvent exchange within H12 of VDR upon SRC1 RID binding | ΔΔHDX in the VDR hinge region (aa97−108) [%] | further reduction in deuterium exchange of VDR AF2 H12 upon binding of TRPV6 VBS (ligand-bound heterodimer, not observed upon binding the BGLAP VBS) | protection to solvent exchange at VDR AF2 surface upon SRC1 RID interaction (ligand-heterodimer-BGLAP VBS complex) | protection to solvent exchange at VDR AF2 surface upon SRC1 RID interaction (ligand-heterodimer-TRPV6 VBS complex)
CCc1cc(C(CC)(CC)c2ccc(OCC(O)C(C)(C)C)c(C)c2)sc1C(=O)N[C@@H](C)C(=O)O (single isomer, unassigned) [Cmpd2, L-2-[(5-{1-Ethyl-1-[4-(2-hydroxy-3,3-dimethyl-butoxy)-3-methyl-phenyl]-propyl}-3-ethyl-thiophene-2-carbonyl)-amino]-propionic acid] | ~ 6% | ~ 9% | ~ 20% | 19 |  |  | 
CCC(CC)(c1ccc(OCC(O)C(C)(C)C)c(C)c1)c1ccc(C(=O)N(C)CC(=O)O)c(C)c1 (stereo not drawn) [Cmpd1, [(4-{1-ethyl-1-[4-(2-hydroxy-3,3-dimethyl-butoxy)-3-methyl-phenyl]-propyl}-2-methyl-benzoyl)-methyl-amino]-acetic acid] |  |  | ~ 11% | 21 |  |  | 
CCC(CC)(c1ccc(OCC(O)C(C)(C)C)c(C)c1)c1cc(C)c(C(=O)Nc2nnn[nH]2)s1 (stereo not drawn) [Cmpd3, 3'-[4-(2-hydroxy-3,3-dimethylbutoxy)-3-methylphenyl]-3'-[5-(tetrazol-5-yl-aminocarbonyl)-4-methylthiophen-2-yl]pentane] |  |  |  |  | ~ 13% | ~ 20% | ~ 9%
